Key:
Rhodococcus ruber SC1 = test: Growth of Rhodococcus ruber SC1 on cyclic ketones as sole carbon and energy source; type: cell-based; conditions: for Growth of Rhodococcus ruber SC1: cyclic ketone as sole carbon and energy source
Protocol: Synthetic S12 medium was used to establish enrichment. S12 medium contains the following: 10 mM ammonium sulfate, 50 mM potassium phosphate buffer (pH 7.0), 2 mM MgCl2, 0.7 mM CaCl2, 50 μM MnCl2, 1 μM FeCl3, 1 μM […], 1.72 μM CuSO4, 2.53 μM CoCl2, 2.42 μM […], and 0.0001% FeSO4. The carbon sources were added directly to the S12 medium and the bacteria were grown in sealed culture flasks.
S12 agar was used to test isolates that utilize compounds as the sole source of carbon and energy. S12 agar was prepared by adding 1.5% Noble agar (DIFCO) to S12 medium. Bacteria growing on S12 agar were supplied with volatile compounds such as cyclododecanone by sprinkling solids of the volatile compound on the interior of the petri dish lid or 5 μl of other volatile liquid as vapor. The petri dish was sealed with parafilm and incubated with the lid on the bottom.
Rhodococcus ruber SC1 isolated from cyclododecanone (C12 cyclic ketone) enrichment culture was also tested for growth on cyclic ketones of different carbon numbers as sole carbon and energy source (Table 3). It grows well on cyclopentadecanone (C15 cyclic ketone), cyclotridecanone (C13 cyclic ketone), cyclododecanone (C12 cyclic ketone) and cycloundecanone (C11 cyclic ketone).

[1] = system: monooxygenase and esterase on the S8C; test: Production of different chain length hydroxy acids from cyclic ketones by recombinant E. coli cosmid clone S8C (GC/MS); type: cell-based, Escherichia coli; conditions: cyclic ketone substrate 250 mg/L
Protocol: Transformed XL1-Blue MR cells were grown in M9 medium with 0.4% glucose as sole carbon source. Substrate for conversion was added at early log phase (OD=0.2) and cells were allowed to grow at 30° C. for 20 additional hours. Cells were then frozen and thawed once, centrifuged, and supernatant was filtered through 0.2 μm filters. Filtrate was prepared for GC/MS analysis as described below.
Filtrate was first acidified to pH 2 using concentrated HCl. The acidified sample was extracted twice with methylene chloride or ethyl acetate. The extracts were combined and dried by adding anhydrous magnesium sulfate. Magnesium sulfate was then removed by filteration using Whatman 3MM filter paper and the remaining solvent in the filtrate was evaporated under a gentle stream of nitrogen. The dried residues were resuspended in 0.5 mL of methylene chloride as underivatized samples or derivatized with 0.5 mL of BSTFA [bis (trimethylsilyl) trifluoroacetamide] silylation reagent (SUPELCO, Bellefonte, Pa.). The GC/MS analysis was performed using a Hewlett Packard 5989B MS Engine GC/MS instrument. Samples were injected onto a 30 meter MDN-5S capillary column (SUPELCO, 0.5 μm film thickness) for separation. GC/MS analysis was conducted using electron impact ionization (70 eV).
Example 8 explores whether the cyclic substrates could be expanded to cyclic ketones of different chain length and whether corresponding hydroxy acids could be produced. S8C was grown as described above except that different cyclic ketones were added. Cyclohexanone (C6), cycloheptanone (C7), cyclooctanone (C8), cyclodecanone (C10), cycloundecanone (C11), cyclododecanone (C12), cyclotridecanone (C13) and cyclopentadecanone (C15) were added as substrates at 250 mg/L concentration. Identification of the corresponding hydroxy acids produced was performed by GC/MS analysis as described above. Large amount of corresponding hydroxy acids were detected from S8C grown in the presence of C11, C12 and C13 cyclic ketones. Medium level of 15-hydroxy acid was detected from C15 cyclic ketone grown cells. Small amount of hydroxy acids was detected from cells grown on C6 and C10 cyclic ketones. […] The substrate range of the monooxygenase and esterase on the S8C appeared to favor long chain cyclic ketones (C>10). This correlated well with the growth substrate range ([…]) of the Rhodococcus ruber SC1. The ability of Rhodococcus ruber SC1 to grow on cyclic ketones of C11-C15 was likely due to the relatively broad substrate specificity of the single set of monooxygenase and esterase encoded on S8C clone (Table 3). It is possible that mixture of the large cyclic ketones may be used as substrates in a biotransformation to produce a mixture of long chain hydroxy acids or diacids for certain applications.

Compound	Growth of Rhodococcus ruber SC1 on cyclic ketone (in words) (Rhodococcus ruber SC1)	Growth of Rhodococcus ruber SC1 (Rhodococcus ruber SC1)	Corresponding Hydroxy Acid Produced by E. coli Cosmids [1]	Corresponding hydroxy acid detected (in words) [1]
O=C1CCCCCCCCCCCCCC1 [C15, cyclopentadecanone]	grows well	+	+	Medium level
O=C1CCCCCC1 [C7, cycloheptanone]	does not grow	−	−	No hydroxy acid was detected
O=C1CCCCCCCCCCCC1 [C13, cyclotridecanone]	grows well	+	++	Large amount
O=C1CCCCCCCCC1 [C10, cyclodecanone]	grows moderately well	+	+/−	Small amount
O=C1CCCCC1 [C6, cyclohexanone]	does not grow	−	+/−	Small amount
O=C1CCCCCCCCCC1 [C11, cycloundecanone]	grows well	+	++	Large amount
O=C1CCCCCCCCCCC1 [C12, cyclododecanone]	grows well	+	++	Large amount
O=C1CCCCCCC1 [C8, cyclooctanone]	does not grow	−	−	No hydroxy acid was detected
